Data from patent US8815875B2 (Merck Sharp & Dohme Corp., priority 2008, dated 2014).

biological target: FABP4 (Homo sapiens, UniProt P15090); assay: TdF (Temperature Dependence Fluorescence) assay, thermal shift, FABP4; format: binding
In short: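 Binding measured as ΔTm versus protein alone; binding constants derived by nonlinear fitting with ΔHL set to −7 kcal/mol and ΔCpL to zero.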

Chain of FABP4 (P15090 whole entry, species assumed): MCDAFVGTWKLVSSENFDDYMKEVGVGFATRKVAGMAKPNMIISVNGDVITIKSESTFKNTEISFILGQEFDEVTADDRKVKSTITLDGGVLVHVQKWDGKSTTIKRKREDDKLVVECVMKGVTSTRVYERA

Kd, ≤ 1 nM:
O=C(NCC1(c2ccc(Cl)cc2)CC1)c1c(Cl)cccc1OCc1cc(=O)n2nc(-c3ccccc3)nc2[nH]1 [47-4, 2-chloro-N-((1-(4-chlorophenyl)cyclopropyl)methyl)-6-((7-oxo-2-phenyl-4,7-dihydro-[1,2,4]triazolo[1,5-a]pyrimidin-5-yl)methoxy)benzamide]
O=C(NCC1(c2ccc(Cl)cc2)CCC1)c1c(Cl)cccc1OCc1cc(=O)n2nc(-c3ccccc3)nc2[nH]1 [47-24, 2-chloro-N-((1-(4-chlorophenyl)cyclobutyl)methyl)-6-((7-oxo-2-phenyl-4,7-dihydro-[1,2,4]triazolo[1,5-a]pyrimidin-5-yl)methoxy)benzamide]
CC(C)(C)c1cc(NC(=O)c2c(Cl)cccc2OCc2cc(=O)n3nc(-c4ccccc4)nc3[nH]2)n(-c2ccc(Cl)cc2)n1 [47-27, N-(3-tert-butyl-1-(4-chlorophenyl)-1H-pyrazol-5-yl)-2-chloro-6-((7-oxo-2-phenyl-4,7-dihydro-[1,2,4]triazolo[1,5-a]pyrimidin-5-yl)methoxy)benzamide]
CC1(CNC(=O)c2c(Cl)cccc2OCc2cc(=O)n3nc(-c4ccccc4)nc3[nH]2)COC1 [47-28, 2-chloro-N-((3-methyloxetan-3-yl)methyl)-6-((7-oxo-2-phenyl-4,7-dihydro-[1,2,4]triazolo[1,5-a]pyrimidin-5-yl)methoxy)benzamide]
O=C(NCC1(c2ccccc2Cl)CC1)c1c(Cl)cccc1OCc1cc(=O)n2nc(-c3ccccc3)nc2[nH]1 [47-29, 2-chloro-N-((1-(2-chlorophenyl)cyclopropyl)methyl)-6-((7-oxo-2-phenyl-4,7-dihydro-[1,2,4]triazolo[1,5-a]pyrimidin-5-yl)methoxy)benzamide]

Kd, > 500 nM:
NCc1cccc(OCc2cc(=O)n3nc(-c4ccccc4)nc3[nH]2)c1C1CC1 [46-3]
O=C(c1c(Cl)cccc1OCc1cc(=O)n2nc(-c3ccccc3)nc2[nH]1)N1CCS(=O)(=O)CC1 [47-6, 4-[2-chloro-6-[(4,7-dihydro-7-oxo-2-phenyl[1,2,4]triazolo[1,5-a]pyrimidin-5-yl)methoxy]benzoyl]thiomorpholine, 1,1-dioxide]

FABP4 TdF Kd, B (0.5 ≦ B < 0.001 μM):
O=C(O)c1c(Cl)cccc1OCc1cc(=O)n2nc(-c3ccccc3)nc2[nH]1 [47-1, 2-chloro-6-((7-oxo-2-phenyl-4,7-dihydro-[1,2,4]triazolo[1,5-a]pyrimidin-5-yl)methoxy)benzoic acid]
Cn1nccc1NC(=O)c1c(Cl)cccc1OCc1cc(=O)n2nc(-c3ccccc3)nc2[nH]1 [47-2, 2-chloro-N-(1-methyl-1H-pyrazol-5-yl)-6-((7-oxo-2-phenyl-4,7-dihydro-[1,2,4]triazolo[1,5-a]pyrimidin-5-yl)methoxy)benzamide]
O=C(NCC1CC1)c1c(Cl)cccc1OCc1cc(=O)n2nc(-c3ccccc3)nc2[nH]1 [47-3]
O=C(NCC1CCC1)c1c(Cl)cccc1OCc1cc(=O)n2nc(-c3ccccc3)nc2[nH]1 [47-5, 2-chloro-N-(cyclobutylmethyl)-6-((7-oxo-2-phenyl-4,7-dihydro-[1,2,4]triazolo[1,5-a]pyrimidin-5-yl)methoxy)benzamide]
Cc1cc(NC(=O)c2c(Cl)cccc2OCc2cc(=O)n3nc(-c4ccccc4)nc3[nH]2)n(C)n1 [47-7, 2-chloro-N-(1,3-dimethyl-1H-pyrazol-5-yl)-6-((7-oxo-2-phenyl-4,7-dihydro-[1,2,4]triazolo[1,5-a]pyrimidin-5-yl)methoxy)benzamide]
Cc1cc(NC(=O)c2c(Cl)cccc2OCc2cc(=O)n3nc(-c4ccccc4)nc3[nH]2)no1 [47-8, 2-chloro-N-(5-methylisoxazol-3-yl)-6-((7-oxo-2-phenyl-4,7-dihydro-[1,2,4]triazolo[1,5-a]pyrimidin-5-yl)methoxy)benzamide]
COC[C@@H]1CCCN1C(=O)c1c(Cl)cccc1OCc1cc(=O)n2nc(-c3ccccc3)nc2[nH]1 [47-9, (S)-5-((3-chloro-2-(2-(methoxymethyl)pyrrolidine-1-carbonyl)phenoxy)methyl)-2-phenyl-[1,2,4]triazolo[1,5-a]pyrimidin-7(4H)-one]
COC[C@H]1CCCN1C(=O)c1c(Cl)cccc1OCc1cc(=O)n2nc(-c3ccccc3)nc2[nH]1 [47-10]
Cn1nc(C2CC2)cc1NC(=O)c1c(Cl)cccc1OCc1cc(=O)n2nc(-c3ccccc3)nc2[nH]1 [47-11]
O=C(NC1(CO)CC1)c1c(Cl)cccc1OCc1cc(=O)n2nc(-c3ccccc3)nc2[nH]1 [47-12, 2-chloro-N-(1-(hydroxymethyl)cyclopropyl)-6-((7-oxo-2-phenyl-4,7-dihydro-[1,2,4]triazolo[1,5-a]pyrimidin-5-yl)methoxy)benzamide]
O=C(NCC1(O)CCCCC1)c1c(Cl)cccc1OCc1cc(=O)n2nc(-c3ccccc3)nc2[nH]1 [47-13, 2-chloro-N-((1-hydroxycyclohexyl)methyl)-6-((7-oxo-2-phenyl-4,7-dihydro-[1,2,4]triazolo[1,5-a]pyrimidin-5-yl)methoxy)benzamide]
O=C(NC1(CO)CCCCC1)c1c(Cl)cccc1OCc1cc(=O)n2nc(-c3ccccc3)nc2[nH]1 [47-14]
O=C(NCC1(O)CCCC1)c1c(Cl)cccc1OCc1cc(=O)n2nc(-c3ccccc3)nc2[nH]1 [47-15, 2-chloro-N-((1-hydroxycyclopentyl)methyl)-6-((7-oxo-2-phenyl-4,7-dihydro-[1,2,4]triazolo[1,5-a]pyrimidin-5-yl)methoxy)benzamide]
O=C(NC1(CO)CCCC1)c1c(Cl)cccc1OCc1cc(=O)n2nc(-c3ccccc3)nc2[nH]1 [47-17, 2-chloro-N-(1-(hydroxymethyl)cyclopentyl)-6-((7-oxo-2-phenyl-4,7-dihydro-[1,2,4]triazolo[1,5-a]pyrimidin-5-yl)methoxy)benzamide]
O=C(NCC1(CO)CC1)c1c(Cl)cccc1OCc1cc(=O)n2nc(-c3ccccc3)nc2[nH]1 [47-18, 2-chloro-N-((1-(hydroxymethyl)cyclopropyl)methyl)-6-((7-oxo-2-phenyl-4,7-dihydro-[1,2,4]triazolo[1,5-a]pyrimidin-5-yl)methoxy)benzamide]
COCC1(CNC(=O)c2c(Cl)cccc2OCc2cc(=O)n3nc(-c4ccccc4)nc3[nH]2)CC1 [47-19, 2-chloro-N-((1-(methoxymethyl)cyclopropyl)methyl)-6-((7-oxo-2-phenyl-4,7-dihydro-[1,2,4]triazolo[1,5-a]pyrimidin-5-yl)methoxy)benzamide]
O=C(NCC1(CO)CCCC1)c1c(Cl)cccc1OCc1cc(=O)n2nc(-c3ccccc3)nc2[nH]1 [47-20, 2-chloro-N-((1-(hydroxymethyl)cyclopentyl)methyl)-6-((7-oxo-2-phenyl-4,7-dihydro-[1,2,4]triazolo[1,5-a]pyrimidin-5-yl)methoxy)benzamide]
O=C(NC1(CO)CCOCC1)c1c(Cl)cccc1OCc1cc(=O)n2nc(-c3ccccc3)nc2[nH]1 [47-21, 2-chloro-N-(4-(hydroxymethyl)tetrahydro-2H-pyran-4-yl)-6-((7-oxo-2-phenyl-4,7-dihydro-[1,2,4]triazolo[1,5-a]pyrimidin-5-yl)methoxy)benzamide]
CC(C)(CNC(=O)c1c(Cl)cccc1OCc1cc(=O)n2nc(-c3ccccc3)nc2[nH]1)N1CCOCC1 [47-22, 2-chloro-N-(2-methyl-2-morpholinopropyl)-6-((7-oxo-2-phenyl-4,7-dihydro-[1,2,4]triazolo[1,5-a]pyrimidin-5-yl)methoxy)benzamide]
COc1ccccc1C1(CNC(=O)c2c(Cl)cccc2OCc2cc(=O)n3nc(-c4ccccc4)nc3[nH]2)CCC1 [47-23]
O=C(NCC1(O)CCOCC1)c1c(Cl)cccc1OCc1cc(=O)n2nc(-c3ccccc3)nc2[nH]1 [47-25, 2-chloro-N-((4-hydroxytetrahydro-2H-pyran-4-yl)methyl)-6-((7-oxo-2-phenyl-4,7-dihydro-[1,2,4]triazolo[1,5-a]pyrimidin-5-yl)methoxy)benzamide]
O=C(NCC1(CO)CCOCC1)c1c(Cl)cccc1OCc1cc(=O)n2nc(-c3ccccc3)nc2[nH]1 [47-26, 2-chloro-N-((4-(hydroxymethyl)tetrahydro-2H-pyran-4-yl)methyl)-6-((7-oxo-2-phenyl-4,7-dihydro-[1,2,4]triazolo[1,5-a]pyrimidin-5-yl)methoxy)benzamide]
O=C(NCC1(CO)CCC1)c1c(Cl)cccc1OCc1cc(=O)n2nc(-c3ccccc3)nc2[nH]1 [47-30, 2-chloro-N-((1-(hydroxymethyl)cyclobutyl)methyl)-6-((7-oxo-2-phenyl-4,7-dihydro-[1,2,4]triazolo[1,5-a]pyrimidin-5-yl)methoxy)benzamide]
O=C(Nc1cc(C2CC2)n[nH]1)c1c(Cl)cccc1OCc1cc(=O)n2nc(-c3ccccc3)nc2[nH]1 [47-32, 2-chloro-N-(3-cyclopropyl-1H-pyrazol-5-yl)-6-((7-oxo-2-phenyl-4,7-dihydro-[1,2,4]triazolo[1,5-a]pyrimidin-5-yl)methoxy)benzamide]
O=C(NCC1(CO)COC1)c1c(Cl)cccc1OCc1cc(=O)n2nc(-c3ccccc3)nc2[nH]1 [47-34, 2-chloro-N-((3-(hydroxymethyl)oxetan-3-yl)methyl)-6-((7-oxo-2-phenyl-4,7-dihydro-[1,2,4]triazolo[1,5-a]pyrimidin-5-yl)methoxy)benzamide]
O=C(NC1(CO)CCC1)c1c(Cl)cccc1OCc1cc(=O)n2nc(-c3ccccc3)nc2[nH]1 [47-35]
CC(NC(=O)c1c(Cl)cccc1OCc1cc(=O)n2nc(-c3ccccc3)nc2[nH]1)C1CCC1 (stereo not shown) [47-36]
